In PMC10261210 (Cancer Chemotherapy and Pharmacology, 2023):
“Also recorded” adds a separate entry of the source. Like-named read-outs stand apart in the source and are kept apart here.

How the values were obtained:
[1] = tested on: patients with relapsed or refractory advanced solid tumors; experiment: 3 + 3 dose escalation: DLT, MTD, RP2D; type: in vivo; settings: for MTD: 28-day cycles; for recommended phase 2 dose (RP2D): human, in vivo
Source text: Prior to the initiation of QW dose escalation, the initial cycle length of 22 days was changed to 28 days by protocol amendment to improve clinical feasibility and better facilitate future combination studies. Patients enrolled prior to this protocol amendment in an ongoing Q2D dose escalation cohort continued on the 22-day cycle schedule until the cohort was full and all patients had been evaluated for dose-limiting toxicity (DLT). For both Q2D and QW regimens, dose escalation progressed according to the incidence of DLT in the first treatment cycle (either 22 days or 28 days). […] The MTD was defined as the highest dose level that generated DLT in 0/3 or 1/6 patients. On a case-by-case basis, the sponsor in collaboration with the principal investigators determined if intrapatient dose escalation was appropriate. Patients who had any dose reductions were not permitted to dose escalate.
The starting dose for the Q2D dose escalation phase was 20 mg, which was equivalent to one-tenth of the highest non-severely toxic dose (HNSTD) established in monkey toxicology studies. Dose escalation included planned dose levels of 40 mg, 80 mg, 135 mg, 200 mg, and 280 mg. […] In addition, a seventh Q2D cohort was to enroll sufficient patients (approximately 16) with any advanced solid tumor (excluding lymphoma) to ensure that 12 patients completed protocol-specified dosing and PK assessments scheduled during cycle 1.
The study was initially designed to investigate a Q2D schedule. Subsequently, a protocol amendment introduced planned QW dose escalation cohorts. The alteration in the dosing regimen from Q2D to QW was expected to reduce drug accumulation and increase Cmax while maintaining similar steady-state AUC. In addition, it was hypothesized that the increased Cmax might lead to a higher degree of pathway inhibition for a window of time within the dosing interval, without compromising overall dose density. Planned QW doses to be administered on days 1, 8, 15, and 22 of a 28-day cycle were a starting dose of 400 mg, followed by dose level increases of 200 mg (i.e., doses of 600 mg, 800 mg, and 1000 mg) in each subsequent cohort until the MTD/RP2D was reached.

[2] = plasma pharmacokinetics (LC–MS/MS, noncompartmental analysis); type: in vivo, human; settings: for Tmax / AUC / Cmax / half-life: human, plasma; for Cmax: read-out: Cmax, geometric mean (%CV); for half-life: read-out: t1/2z, mean (range) (converted)
Experimental: In addition, for patients on Q2D schedules, predose or trough samples were collected on days 9 and 15 (Q2D dosing) or days 8 and 15 (QW dosing) to evaluate time to steady state. […] Plasma concentration–time analysis was performed using noncompartmental analysis. The plasma PK parameters were estimated using a validated version of Phoenix WinNonlin software (Version 6.3 or above, Pharsight Corporation, Raleigh, NC). Terminal half-life was calculated based on the equation: t1/2 = ln2/kel (kel = elimination rate constant determined by linear regression analysis of selected time points in the apparent terminal phase of the log plasma concentration versus time curve).

[3] = tested on: wild-type BRAF; parameters: method as in doi:10.1016/S1359-6349(10)71810-3; settings: preclinical studies; cited from earlier work
[4] = tested on: BRAF-mutant, BRAF deletion mutation and NRAS-mutant xenograft tumor models; parameters: method as in doi:10.1016/S1359-6349(10)71810-3; settings: cited from earlier work
[5] = tested on: BRAF V600 mutant melanoma xenografts; parameters: method as in doi:10.1016/S1359-6349(10)71810-3; settings: mice; tumors remaining sensitive to a second dosing cycle; cited from earlier work
[6] = parameters: method as in PMID 28082416; settings: healthy brain and intracranial tumors (pediatric low-grade astrocytoma cells, KIAA1549-BRAF fusion); cited from earlier work
[7] = tested on: neural progenitor cells transformed with KIAA1549-BRAF fusion protein; parameters: method as in PMID 28082416; settings: cited from earlier work
[8] = tested on: BRAF; parameters: method as in PMID 28082416; settings: cited from earlier work
[9] = tested on: relapsed or refractory advanced solid tumors, melanoma; parameters: method as in ref 25 = [25]; 25. Medina T Barry E Govinda Raju S Blackman S Gonzalez R Prolonged complete response to the pan-RAF inhibitor DAY101 in a patient with an NRAS -mutated acral lentiginous melanoma Pigment Cell Melanom; settings: one patient, NRAS-mutated melanoma, cited from earlier work
[10] = tested on: recurrent/progressive low-grade gliomas harboring MAPK pathway alterations; settings: cited from earlier work
[11] = tested on: relapsed or progressive LGGs harboring BRAF alterations; parameters: method as in ref 33 = [33]; 33. Kilburn L, Landi D, Leary S, Ziegler DS, Baxter P, Franson A, McCowage G, Waanders AJ, Van der Lugt J, Yalon Oren M, Gerber NU, Gottardo NG, Khuong-Quang D-A, Nysom K, Bailey S, Hernáiz Driever P; settings: interim analysis, first 25 enrolled patients with ≥ 6 months of follow-up, QW monotherapy; cited from earlier work
[12] = po, 400 mg, 400 mg QW oral, cycle 1 day 22, plasma, n 3
[13] = po, 600 mg, 600 mg QW oral, cycle 1 day 22, plasma, n 20
[14] = po, 800 mg, 800 mg QW oral, cycle 1 day 22, plasma, n 3
[15] = dose-escalation part, QW monotherapy, 8 patients with tumor RAF gene fusions

C[C@@H](NC(=O)c1ncnc(N)c1Cl)c1ncc(C(=O)Nc2cc(C(F)(F)F)c(Cl)cn2)s1 [tovorafenib]
MTD ([1]; Q2D): 200 mg
MTD ([1]; QW): 600 mg
recommended phase 2 dose (RP2D) [1]: 200 mg
recommended phase 2 dose (RP2D) ([1]; 28 days): 600 mg
dose dependence of steady-state AUC48 ([2]; 20 mg to 280 mg Q2D): approximately dose-proportional
dose dependence of steady-state exposure (AUC168) ([2]; 400 mg to 800 mg QW): approximately dose-proportional
power model coefficient, dose versus steady-state AUC168 ([2]; 400 mg to 800 mg QW, cycle 1 day 22, 95% CI 0.55–2.04): 1.30
geometric mean Rauc ([2]; Q2D dosing regimen at 200 mg): ~ 2.55
Tmax ([2]; oral, post-dose, Q2D and QW, read-out: overall median Tmax): 2 to 4 h
AUC ([2]; po, 20 mg, 20 mg Q2D oral, cycle 1 day 21, plasma, n 3, read-out: AUC48, geometric mean (%CV)): 10.4 µg·h/mL
Cmax ([2]; po, 20 mg, 20 mg Q2D oral, cycle 1 day 21, plasma, n 3): 302 ng/mL
Tmax ([2]; po, 20 mg, 20 mg Q2D oral, cycle 1 day 21, plasma, n 3, read-out: tmax, median (min, max)): 2 h
AUC ([2]; po, 40 mg, 40 mg Q2D oral, cycle 1 day 21, plasma, n 2, read-out: AUC48, geometric mean (%CV)): 20.9 µg·h/mL
Cmax ([2]; po, 40 mg, 40 mg Q2D oral, cycle 1 day 21, plasma, n 2): 760 ng/mL
Tmax ([2]; po, 40 mg, 40 mg Q2D oral, cycle 1 day 21, plasma, n 2, read-out: tmax, median (min, max)): 3 h
AUC ([2]; po, 80 mg, 80 mg Q2D oral, cycle 1 day 21, plasma, n 3, read-out: AUC48, geometric mean (%CV)): 42.7 µg·h/mL
Cmax ([2]; po, 80 mg, 80 mg Q2D oral, cycle 1 day 21, plasma, n 3): 2040 ng/mL
Tmax ([2]; po, 80 mg, 80 mg Q2D oral, cycle 1 day 21, plasma, n 3, read-out: tmax, median (min, max)): 4 h
AUC ([2]; po, 135 mg, 135 mg Q2D oral, cycle 1 day 21, plasma, n 3, read-out: AUC48, geometric mean (%CV)): 96.8 µg·h/mL
Cmax ([2]; po, 135 mg, 135 mg Q2D oral, cycle 1 day 21, plasma, n 3): 3320 ng/mL
Tmax ([2]; po, 135 mg, 135 mg Q2D oral, cycle 1 day 21, plasma, n 3, read-out: tmax, median (min, max)): 2 h
AUC ([2]; po, 200 mg, 200 mg (n=7) Q2D oral, cycle 1 day 21, plasma, n 6, read-out: AUC48, geometric mean (%CV)): 118 µg·h/mL
Cmax ([2]; po, 200 mg, 200 mg (n=7) Q2D oral, cycle 1 day 21, plasma, n 6): 3810 ng/mL
Tmax ([2]; po, 200 mg, 200 mg (n=7) Q2D oral, cycle 1 day 21, plasma, n 6, read-out: tmax, median (min, max)): 3 h
AUC ([2]; po, 200 mg, 200 mg (n=23; PK expansion cohort and 28-day cycle cohort) Q2D oral, cycle 1 day 21, plasma, n 14, read-out: AUC48, geometric mean (%CV)): 127 µg·h/mL
Cmax ([2]; po, 200 mg, 200 mg (n=23; PK expansion cohort and 28-day cycle cohort) Q2D oral, cycle 1 day 21, plasma, n 14): 3680 ng/mL
Tmax ([2]; po, 200 mg, 200 mg (n=23; PK expansion cohort and 28-day cycle cohort) Q2D oral, cycle 1 day 21, plasma, n 14, read-out: tmax, median (min, max)): 2 h
AUC ([2]; po, 280 mg, 280 mg Q2D oral, cycle 1 day 21, plasma, n 4, read-out: AUC48, geometric mean (%CV)): 155 µg·h/mL
Cmax ([2]; po, 280 mg, 280 mg Q2D oral, cycle 1 day 21, plasma, n 4): 4060 ng/mL
Tmax ([2]; po, 280 mg, 280 mg Q2D oral, cycle 1 day 21, plasma, n 4, read-out: tmax, median (min, max)): 3 h
AUC ([2]; po, 400 mg, 400 mg QW oral, cycle 1 day 22, plasma, n 3, read-out: AUC168, geometric mean (%CV)): 193 µg·h/mL
Cmax [2, 12]: 3140 ng/mL
Tmax ([2]; po, 400 mg, 400 mg QW oral, cycle 1 day 22, plasma, n 3, read-out: Tmax, median (min, max)): 3 h
half-life [2, 12]: 52 h
AUC ([2]; po, 600 mg, 600 mg QW oral, cycle 1 day 22, plasma, n 20, read-out: AUC168, geometric mean (%CV)): 330 µg·h/mL
Cmax [2, 13]: 5650 ng/mL
Tmax ([2]; po, 600 mg, 600 mg QW oral, cycle 1 day 22, plasma, n 20, read-out: Tmax, median (min, max)): 3 h
half-life [2, 13]: ~70 h
AUC ([2]; po, 800 mg, 800 mg QW oral, cycle 1 day 22, plasma, n 3, read-out: AUC168, geometric mean (%CV)): 473 µg·h/mL
Cmax [2, 14]: 6460 ng/mL
Tmax ([2]; po, 800 mg, 800 mg QW oral, cycle 1 day 22, plasma, n 3, read-out: Tmax, median (min, max)): 4 h
half-life [2, 14]: 68.1 h
accumulation in systemic circulation (day 22 AUC168 over day 1 AUC168) ([2]; repeated QW dosing, 400–800 mg): minimal accumulation; also recorded: Minimal to no apparent accumulation
IC50 [3]: 10.1 nM
p-ERK suppression [4]: strong and sustained p-ERK suppression
effect on large, established xenograft tumors [5]: caused tumor regression
blood–brain barrier penetration [6]: good blood–brain barrier penetration
paradoxical activation of ERK signaling [7]: not to trigger paradoxical activation of ERK signaling
affinity for monomeric versus dimeric forms of BRAF [8]: equal affinity
treatment time until complete response was reported ([9]; single patient IND after the study): 7 months
duration for which complete response has been sustained ([9]; single patient IND, continued treatment): 8 years
complete responses [10, 15]: 2 patients
partial responses [10, 15]: 3 patients
prolonged stable disease [10, 15]: two
patients with clinically meaningful activity ([10]; phase 1b part, 24 of 35 patients with MAPK pathway-altered cancers): 69%
complete responses ([10]; phase 1b part, 35 patients): 2
partial responses ([10]; phase 1b part, 35 patients): 7
stable diseases ([10]; phase 1b part, 35 patients): 15
clinical benefit rate [11]: 91%
overall response rate [11]: 64%
